Source: ChEMBL document CHEMBL5512685, “Discovery of a Promising CBP/p300 Degrader XYD129 for the Treatment of Acute Myeloid Leukemia” (J Med Chem, 2024)

Experiments:
MV4-11 [1] = experiment: Antiproliferative activity against human MV4-11 cells assessed as inhibition of cell growth incubated for 120 hrs by celltiter glo luminescence analysis; type: functional, cell-based; conditions: MV4-11, 120 h
CREB-binding protein = CREB-binding protein (Homo sapiens, UniProt Q92793); experiment: Inhibition of C-terminal biotinylated tetra-acetylated histone peptide H4 binding to His6-fused human CBP bromodomain (R1081 to G1197 residues) incubated for 1 hrs by HTRF assay
[2] = target: Histone acetyltransferase p300 (Homo sapiens, UniProt Q09472); experiment: Inhibition of C-terminal biotinylated tetra-acetylated histone peptide H4 binding to His6-fused human p300 bromodomain (A1040 to G1161 residues) incubated for 1 hrs by HTRF assay
Protein cereblon = Protein cereblon (Homo sapiens, UniProt Q96SW2); experiment: Inhibition of biotinylated thalidomide binding to CRBN (40 to 442 residues) (unknown origin) incubated for 1 hrs by HTRF assay
[3] = Antiproliferative activity against human MOLM16 cells assessed as inhibition of cell growth incubated for 72 hrs by celltiter glo luminescence analysis; type: functional, cell-based, MOLM-16; conditions: MOLM16, 72 h
KG-1 = experiment: Antiproliferative activity against human KG-1 cells assessed as inhibition of cell growth incubated for 72 hrs by celltiter glo luminescence analysis; type: functional, cell-based; conditions: KG-1, 72 h
[4] = Cytotoxicity against human HL7702 cells assessed as inhibition of cell growth incubated for 72 hrs by celltiter glo luminescence analysis; type: toxicity, cell-based; conditions: HL7702 (L02) cells
MV4-11 [5] = experiment: Potency index, ratio of Y08207 IC50 to test compound IC50 for antiproliferative activity against human MV4-11 cells assessed as inhibition of cell growth incubated for 120 hrs by celltiter glo luminescence analysis; type: functional
[6] = target: T1, Protein cereblon/CREB-binding protein (Homo sapiens) (UniProt Q92793+Q96SW2); experiment: PROTAC activity at CRBN/CBP in human MOLM16 cells assessed as induction of CBP degradation incubated for 24 hrs by Western blot analysis; type: cell-based; conditions: dose 0-1000 nM
[7] = target: T2, Protein cereblon/Histone acetyltransferase p300 (Homo sapiens) (UniProt Q09472+Q96SW2); experiment: PROTAC activity at CRBN/p300 in human MOLM16 cells assessed as induction of p300 degradation incubated for 24 hrs by Western blot analysis; type: cell-based; conditions: dose 0-1000 nM
[8] = target: T1, Protein cereblon/CREB-binding protein (Homo sapiens); experiment: PROTAC activity at CRBN/CBP in human MOLM16 cells assessed as induction of CBP degradation at 1000 nM incubated for 24 hrs by Western blot analysis relative to control; type: cell-based
[9] = target: T2, Protein cereblon/Histone acetyltransferase p300 (Homo sapiens); experiment: PROTAC activity at CRBN/p300 in human MOLM16 cells assessed as induction of p300 degradation at 1000 nM incubated for 24 hrs by Western blot analysis relative to control; type: cell-based

Structure (SMILES): CC(=O)c1cc(C(=O)Nc2cc(CO)cc(-c3cnn(C)c3)c2F)c2cc(OCC(=O)NCC#Cc3cccc4c3C(=O)N(C3CCC(=O)NC3=O)C4=O)ccn12 (stereo not drawn)
- IC50 (MV4-11 [1]): 23 µM

Structure (SMILES): CC(=O)c1cc(C(=O)Nc2cc(CO)cc(-c3cnn(C)c3)c2F)c2cc(OCCCC(=O)NCC#Cc3cccc4c3C(=O)N(C3CCC(=O)NC3=O)C4=O)ccn12 (stereo not drawn)
- IC50 (MV4-11 [1]): 23.2 µM

Structure (SMILES): CC(=O)c1cc(C(=O)Nc2cc(CO)cc(-c3cnn(C)c3)c2F)c2cc(OCCCC(=O)NCCCCNc3cccc4c3C(=O)N(C3CCC(=O)NC3=O)C4=O)ccn12 (stereo not drawn)
- IC50 (MV4-11 [1]): > 20 µM

Structure (SMILES): CC(=O)c1cc(C(=O)Nc2cc(CO)cc(-c3cnn(C)c3)c2F)c2cc(OCCCCCC(=O)NCCCc3cccc4c3C(=O)N(C3CCC(=O)NC3=O)C4=O)ccn12 (stereo not drawn)
- IC50 (MV4-11 [1]): 0.46 µM
- IC50 (CREB-binding protein): 0.068 µM
- IC50 [2]: 0.046 µM
- IC50 (Protein cereblon): 0.79 µM
- IC50 [3]: 0.054 µM
- IC50 (KG-1): 4.77 µM
- IC50 at 72 h [4]: > 100 µM
- Ratio IC50 (MV4-11 [5]): ~8

Structure (SMILES): CC(=O)c1cc(C(=O)Nc2cc(CO)cc(-c3cnn(C)c3)c2F)c2cc(OCCCCCCCC(=O)NCC#Cc3cccc4c3C(=O)N(C3CCC(=O)NC3=O)C4=O)ccn12 (stereo not drawn)
- IC50 (MV4-11 [1]): 3.25 µM
- Ratio IC50 (MV4-11 [5]): ~2

Structure (SMILES): CC(=O)c1cc(C(=O)Nc2cc(CO)cc(-c3cnn(C)c3)c2F)c2cc(OC3CCN(C(=O)CCOCCNc4cccc5c4C(=O)N(C4CCC(=O)NC4=O)C5=O)CC3)ccn12 (stereo not drawn)
- IC50 (MV4-11 [1]): 8.03 µM

Structure (SMILES): CC(=O)c1cc(C(=O)Nc2cc(CO)cc(-c3cnn(C)c3)c2F)c2cc(O)ccn12
- IC50 (MV4-11 [1]): 6.37 µM
- IC50 (CREB-binding protein): 0.006 µM
- IC50 [2]: 0.007 µM
- IC50 (Protein cereblon): > 100 µM
- IC50 [3]: 13.5 µM
- IC50 (KG-1): 11.6 µM
- IC50 at 72 h [4]: 38.3 µM

Structure (SMILES): CC(=O)c1cc(C(=O)Nc2cc(CO)cc(-c3cnn(C)c3)c2F)c2cc(OCC(=O)NCCCCNc3ccc4c(c3)C(=O)N(C3CCC(=O)NC3=O)C4=O)ccn12 (stereo not drawn)
- IC50 (MV4-11 [1]): > 20 µM

Structure (SMILES): CC(=O)c1cc(C(=O)Nc2cc(CO)cc(-c3cnn(C)c3)c2F)c2cc(OCC(=O)NCCCNc3cccc4c3C(=O)N(C3CCC(=O)NC3=O)C4=O)ccn12 (stereo not drawn)
- IC50 (MV4-11 [1]): 1.06 µM
- Ratio IC50 (MV4-11 [5]): 6

Structure (SMILES): CC(=O)c1cc(C(=O)Nc2cc(CO)cc(-c3cnn(C)c3)c2F)c2cc(OCCCC(=O)NCCNc3ccc4c(c3)C(=O)N(C3CCC(=O)NC3=O)C4=O)ccn12 (stereo not drawn)
- IC50 (MV4-11 [1]): 17.8 µM

Structure (SMILES): CC(=O)c1cc(C(=O)Nc2cc(CO)cc(-c3cnn(C)c3)c2F)c2cc(OCCCC(=O)NCCNc3cccc4c3C(=O)N(C3CCC(=O)NC3=O)C4=O)ccn12 (stereo not drawn)
- IC50 (MV4-11 [1]): 0.42 µM
- IC50 (CREB-binding protein): 0.073 µM
- IC50 [2]: 0.077 µM
- IC50 (Protein cereblon): 1.1 µM
- IC50 [3]: 0.021 µM
- IC50 (KG-1): 3.95 µM
- IC50 at 72 h [4]: > 100 µM
- Activity [6]: Dose-Dependent Effect
- Activity [7]: Dose-Dependent Effect
- Activity [8]: 100%
- Activity [9]: 100%

Structure (SMILES): CC(=O)c1cc(C(=O)Nc2cc(CO)cc(-c3cnn(C)c3)c2F)c2cc(OCCCCCCC(=O)NCC#Cc3cccc4c3C(=O)N(C3CCC(=O)NC3=O)C4=O)ccn12 (stereo not drawn)
- IC50 (MV4-11 [1]): 3.93 µM
- Ratio IC50 (MV4-11 [5]): ~2

Structure (SMILES): CC(=O)c1cc(C(=O)Nc2cc(CO)cc(-c3cnn(C)c3)c2F)c2cc(OC3CCN(C(=O)CCOCCOCCOCCNc4cccc5c4C(=O)N(C4CCC(=O)NC4=O)C5=O)CC3)ccn12 (stereo not drawn)
- IC50 (MV4-11 [1]): 5.39 µM

Structure (SMILES): CC(=O)c1cc(C(=O)Nc2cc(CO)cc(-c3cnn(C)c3)c2F)c2cc(OCCCCC(=O)NCC#Cc3cccc4c3C(=O)N(C3CCC(=O)NC3=O)C4=O)ccn12 (stereo not drawn)
- IC50 (MV4-11 [1]): 21.2 µM

Structure (SMILES): CC(=O)c1cc(C(=O)Nc2cc(CO)cc(-c3cnn(C)c3)c2F)c2cc(OCC(=O)NCCNc3cccc4c3C(=O)N(C3CCC(=O)NC3=O)C4=O)ccn12 (stereo not drawn)
- IC50 (MV4-11 [1]): > 20 µM

Structure (SMILES): CC(=O)c1cc(C(=O)Nc2cc(CO)cc(-c3cnn(C)c3)c2F)c2cc(OCCCCC(=O)NCCCc3cccc4c3C(=O)N(C3CCC(=O)NC3=O)C4=O)ccn12 (stereo not drawn)
- IC50 (MV4-11 [1]): 0.75 µM
- IC50 (CREB-binding protein): 0.02 µM
- IC50 [2]: 0.022 µM
- IC50 (Protein cereblon): 0.47 µM
- Ratio IC50 (MV4-11 [5]): ~8

Structure (SMILES): CC(=O)c1cc(C(=O)Nc2cc(CO)cc(-c3cnn(C)c3)c2F)c2cc(OCC(=O)NCCCc3cccc4c3C(=O)N(C3CCC(=O)NC3=O)C4=O)ccn12 (stereo not drawn)
- IC50 (MV4-11 [1]): 7.51 µM

Structure (SMILES): CC(=O)c1cc(C(=O)Nc2cc(CO)cc(-c3cnn(C)c3)c2F)c2cc(OCCCCCC(=O)NCC#Cc3cccc4c3C(=O)N(C3CCC(=O)NC3=O)C4=O)ccn12 (stereo not drawn)
- IC50 (MV4-11 [1]): 13 µM

Structure (SMILES): CC(=O)c1cc(C(=O)Nc2cc(CO)cc(-c3cnn(C)c3)c2F)c2cc(OCCCC(=O)NCCCCCCNc3cccc4c3C(=O)N(C3CCC(=O)NC3=O)C4=O)ccn12 (stereo not drawn)
- IC50 (MV4-11 [1]): > 20 µM

Structure (SMILES): CC(=O)c1cc(C(=O)Nc2cc(CO)cc(-c3cnn(C)c3)c2F)c2cc(OC3CCN(C(=O)CCOCCOCCNc4cccc5c4C(=O)N(C4CCC(=O)NC4=O)C5=O)CC3)ccn12 (stereo not drawn)
- IC50 (MV4-11 [1]): 11.1 µM

Structure (SMILES): CC(=O)c1cc(C(=O)Nc2cc(CO)cc(-c3cnn(C)c3)c2F)c2cc(OCCCC(=O)NCCCCCCCCNc3cccc4c3C(=O)N(C3CCC(=O)NC3=O)C4=O)ccn12 (stereo not drawn)
- IC50 (MV4-11 [1]): > 20 µM

Structure (SMILES): CC(=O)c1cc(C(=O)Nc2cc(CO)cc(-c3cnn(C)c3)c2F)c2cc(OC3CCN(C(=O)CCOCCOCCOCCOCCNc4cccc5c4C(=O)N(C4CCC(=O)NC4=O)C5=O)CC3)ccn12 (stereo not drawn)
- IC50 (MV4-11 [1]): 4.89 µM

Structure (SMILES): CC(=O)c1cc(C(=O)Nc2cc(CO)cc(-c3cnn(C)c3)c2F)c2cc(OCCCC(=O)NCCCc3cccc4c3C(=O)N(C3CCC(=O)NC3=O)C4=O)ccn12 (stereo not drawn)
- IC50 (MV4-11 [1]): 1.48 µM

Structure (SMILES): CC(=O)c1cc(C(=O)Nc2cc(CO)cc(-c3cnn(C)c3)c2F)c2cc(OCCCCCCCC(=O)NCCCc3cccc4c3C(=O)N(C3CCC(=O)NC3=O)C4=O)ccn12 (stereo not drawn)
- IC50 (MV4-11 [1]): 1.25 µM

Structure (SMILES): CO[C@H]1CC[C@H](n2c([C@@H]3CCCC(=O)N3c3ccc(F)c(F)c3)nc3cc(-c4c(C)noc4C)ccc32)CC1 [INOBRODIB]
- IC50 (MV4-11 [1]): 0.014 µM
- IC50 (Protein cereblon): > 100 µM
- IC50 [3]: 0.37 µM
- IC50 (KG-1): 17 µM
- IC50 at 72 h [4]: 20 µM

Structure (SMILES): CC(=O)c1cc(C(=O)Nc2cc(CO)cc(-c3cnn(C)c3)c2F)c2cc(OCCCCCCC(=O)NCCCc3cccc4c3C(=O)N(C3CCC(=O)NC3=O)C4=O)ccn12 (stereo not drawn)
- IC50 (MV4-11 [1]): 1.03 µM
- IC50 (CREB-binding protein): 0.036 µM
- IC50 [2]: 0.051 µM
- IC50 (Protein cereblon): 7 µM
